Data: patent US10030016B2 (Sunesis Pharmaceuticals, Inc., priority 2009, dated 2018)
Where a name gives a salt, the structure may show the parent alone. Read-outs that look alike come from different tables or passages of the source.

Legend:
[1] = molecular target: PDK1 (Homo sapiens (Human), UniProt O15530); assay: PDK1 kinase assay (coupled PDK1/AKT/FAM-crosstide assay, IMAP fluorescence polarization); type: biochemical
How it was run: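 PDK1 activity is measured indirectly through activation of a PIFtide-fused AKT2 construct that phosphorylates FAM-crosstide (100 nM). The reaction uses 0.75 nM PDK1, 40 μM ATP, 30 min, 25° C, with IMAP polarization detection.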

[2] = tested on: phospho-akt (Thr308) in PC-3 cells; assay: Inhibition of phospho-akt (Thr308) in PC-3 cells, MSD phospho-akt 308 ELISA kit; type: cell-based; details: Homo sapiens, 2 hours, no serum, read-out: EC50
How it was run: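 Serum-free 2 h compound exposure of overnight-seeded PC-3 cells, threefold dilution series; lysates analysed on blocked MSD plates (3% BSA) for Thr308-phosphorylated Akt, normalised between DMSO and 5 μM wortmannin wells.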

[3] = inhibition of phospo-PDK1 in vitro
[4] = inhibition of P308 Akt in PC-3 cells, MSD
[5] = inhibition of P308 Akt in PC-3 cells using MSD

Sequence of PDK1 (O15530 51-359): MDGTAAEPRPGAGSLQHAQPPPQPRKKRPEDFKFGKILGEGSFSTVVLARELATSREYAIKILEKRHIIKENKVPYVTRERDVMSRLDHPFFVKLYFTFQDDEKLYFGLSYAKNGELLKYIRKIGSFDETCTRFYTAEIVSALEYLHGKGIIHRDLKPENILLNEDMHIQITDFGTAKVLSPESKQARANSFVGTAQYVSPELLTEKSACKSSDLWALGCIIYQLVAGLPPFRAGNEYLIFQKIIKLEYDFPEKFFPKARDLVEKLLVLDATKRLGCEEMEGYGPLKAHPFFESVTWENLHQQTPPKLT

Row | Compound | IC50 [1, 3] [nM] | EC50 [2, 4] [nM] | IC50 ([1]; inhibition of PDK1 in vitro) [nM] | EC50 [2, 5] [nM] | EC50 ([2]; PC-3, 2 h, inhibition of P308 Akt in PC-3 cells using MSD) [nM]
1 | C[C@@H](c1ccc(F)c(F)c1)n1cnc2ccnc(NCc3ccc(-c4ccc5ncnc(N)c5c4)s3)c2c1=O [Example 7.10, 5-({[5-(4-aminoquinazolin-6-yl)thiophen-2-yl]methyl}amino)-3-[(1S)-1-(3,4-difluorophenyl)ethyl] pyrido[4,3-d]pyrimidin-4(3H)-one] | < 100 | < 1000 | – | – | –
2 | Nc1ncnc2ccc(-c3ccccc3CNc3ncccc3C(=O)NCc3ccc(F)c(F)c3)cc12 [Ex. 6.5, 2-{[2-(4-aminoquinazolin-6-yl)benzyl]amino}-N-(3,4-difluorobenzyl) pyridine-3-carboxamide] | > 5000 | 1000 to 10000 | – | – | –
3 | Nc1ncnc2ccc(-c3ccc(CNc4ncsc4C(=O)NCc4ccc(F)c(F)c4)s3)cc12 [Ex. 12.1] | < 100 | > 10000 | – | – | –
4 | CC(C)Oc1cc(CNc2ncccc2C(=O)NC(C)(C)C)cc(-c2c[nH]c3ncc(C(=O)NC4CC4)cc23)c1 [Example 4.1.15, 3-[3-({[(3-tert-butylcarbamoyl)pyridin-2-yl]amino}methyl)-5-(propan-2-yloxy)phenyl]-N-cyclopropyl-1H-pyrrolo[2,3-b] pyridine-5-carboxamide] | > 5000 | 1000 to 10000 | – | – | –
5 | C[C@H](NC(=O)c1cccnc1NC/C=C/c1ccc2c(c1)NC(=O)/C2=C\c1cnc[nH]1)c1ccc(F)c(F)c1 [Example 15.5, 2-((E)-3-((Z)-3-((1H-imidazol-5-yl)methylene)-2-oxoindolin-6-yl)allylamino)-N-((S)-1-(3,4-difluorophenyl)ethyl)nicotinamide] | < 100 | < 1000 | – | – | –
6 | CNC(=O)c1cc(S(=O)(=O)NC(C)(C)C)cnc1NCc1ccc(-c2ccc3ncnc(N)c3c2)s1 [Example 8.6.18, 2-(((5-(4-aminoquinazolin-6-yl)thiophen-2-yl)methyl)amino)-5-(N-t-butylsulfamoyl)-N-methylnicotinamide] | > 5000 | 1000 to 10000 | – | – | –
7 | CC(C)Oc1cc(CNc2ncccc2C(=O)Nc2ccc(C(F)(F)F)cc2)cc(-c2c[nH]c3ncc(C(=O)NC4CC4)cc23)c1 [Example 4.1.2] | > 5000 | > 10000 | – | – | –
8 | Nc1ncnc2ccc(-c3cnc(CNc4ncccc4C(=O)NCc4ccc(F)c(F)c4)s3)cc12 [Ex. 7.1] | 100 to 1000 | 1000 to 10000 | – | – | –
9 | Cn1cnc2cnc3ccc(-c4ccc(CNc5ncc(C#N)nc5C(=O)NCc5ccc(F)c(F)c5)s4)cc3c21 [Example 3.81, 6-cyano-N-(3,4-difluorobenzyl)-3-(((5-(1-methyl-1H-imidazo [4,5-c]quinolin-8-yl)thiophen-2-yl)methyl)amino)pyrazine-2-carboxamide (TFA salt)] | < 100 | < 1000 | – | – | –
10 | C[C@@H](c1ccc(F)cc1)n1cnc2ccnc(NCc3ccc(-c4ccc5ncnc(N)c5c4)s3)c2c1=O [Ex. 7.9] | < 100 | < 1000 | – | – | –
11 | C[C@H](NC(=O)c1cc(F)cnc1NCc1ccc(-c2ccc3ncnc(N)c3c2)s1)c1ccc(F)c(F)c1 [Example 7.13, 2-({[5-(4-aminoquinazolin-6-yl)thiophen-2-yl]methyl}amino)-N-[(1S)-1-(3,4-difluorophenyl)ethyl]-5-fluoropyridine-3-carboxamide] | 100 to 1000 | < 1000 | – | – | –
12 | O=C(NCC1CCCC1)c1cccnc1NCc1cccc(-c2c[nH]c3ncccc23)c1 [Example 1.8, 2-(3-(1H-pyrrolo[2,3-b]pyridin-3-yl)benzylamino)-N-(cyclopentylmethyl)nicotinamide] | 100 to 1000 | 1000 to 10000 | – | – | –
13 | O=C(NCc1ccc(F)c(F)c1)c1cccnc1NCc1ccc(-c2c[nH]c3ncncc23)s1 [Example 4.7, 2-(((5-(7H-pyrrolo[2,3-d]pyrimidin-5-yl)thiophen-2-yl)methyl)amino)-N-(3,4-difluorobenzyl)nicotinamide] | 100 to 1000 | 1000 to 10000 | – | – | –

Continued, values first:

Row | IC50 [1, 3] [nM] | EC50 [2, 4] [nM] | IC50 ([1]; inhibition of PDK1 in vitro) [nM] | EC50 [2, 5] [nM] | EC50 ([2]; PC-3, 2 h, inhibition of P308 Akt in PC-3 cells using MSD) [nM] | Compound
14 | – | – | < 100 | < 1000 | – | C[C@H](NC(=O)c1cc(C#N)cnc1NCc1ccc(-c2cnc(N)c(C(=O)NCCO)c2)cc1)c1ccc(F)cc1 [Example 204, (S)-2-amino-5-(4-((5-cyano-3-(1-(4-fluorophenyl)ethylcarbamoyl)pyridin-2-ylamino)methyl)phenyl)-N-(2-hydroxyethyl) nicotinamide]
15 | 100 to 1000 | > 10000 | – | – | – | O=C(NCc1ccc(F)c(F)c1)c1cccnc1Nc1cccc(-c2cccc3c2CNC3=O)c1 [Example 17.1, N-(3,4-difluorobenzyl)-2-(3-(1-oxoisoindolin-4-yl)phenylamino)-nicotinamide]
16 | – | – | 100 to 1000 | – | 1000 to 10000 | CNc1ncc2cc(O[C@H](C)CNc3ncc(C#N)nc3C(=O)N[C@@H](C)c3ccc(F)c(F)c3)ccc2n1 [Example 252, 6-cyano-N-((S)-1-(3,4-difluorophenyl)ethyl)-3-((R)-2-(2-(methylamino)quinazolin-6-yloxy)propylamino)pyrazine-2-carboxamide]
17 | < 100 | 1000 to 10000 | – | – | – | O=C1Nc2cc(/C=C/CNc3ncccc3C(=O)NCc3ccc(F)c(F)c3)ccc2/C1=C/c1ncc[nH]1 [Example 15.12, N-(3,4-Difluoro-benzyl)-2-((E)-3-{3-[1-(1H-imidazol-2-yl)-meth-(Z)-ylidene]-2-oxo-2,3-dihydro-1H-indol-6-yl}-allylamino)-nicotinamide]
18 | – | – | < 100 | < 1000 | – | C[C@H](NC(=O)c1cc(C#N)cnc1NCc1ccc(-c2cnc3[nH]c(=O)[nH]c3c2)cc1F)c1ccc(F)cc1 [Example 126, (S)-5-cyano-2-(2-fluoro-4-(2-oxo-2,3-dihydro-1H-imidazo[4,5-b]pyridin-6-yl)benzyl-amino)-N-(1-(4-fluorophenyl)ethyl) nicotinamide]
19 | – | – | < 100 | < 1000 | – | C[C@H](NC(=O)c1cccnc1NCc1ccc(-c2cnc3[nH]c(=O)[nH]c3c2)cc1)c1ccc(F)c(F)c1 [Example 366, (S)-N-(1-(3,4-difluorophenyl)ethyl)-2-(4-(2-oxo-2,3-dihydro-1H-imidazo[4,5-b]pyridin-6-yl)benzylamino) nicotinamide]
20 | < 100 | – | – | < 1000 | – | CC(C)n1cc(-c2ccc(CNc3ncc(C(F)(F)F)cc3C(=O)Nc3ccc(F)cc3)cc2)c2c(N)ncnc21 [Example 442, 2-(4-(4-amino-7-isopropyl-7H-pyrrolo[2,3-d]pyrimidin-5-yl)benzylamino)-N-(4-fluorophenyl)-5-(trifluoromethyl)nicotinamide]
21 | – | – | < 100 | 1000 to 10000 | – | CC(C)(O)Cn1cc(-c2ccc(CNc3ncc(C(F)(F)F)cc3C(=O)Nc3ccc(F)cc3)cc2)c2c(N)ncnc21 [Example 405, 2-(4-(4-amino-7-(2-hydroxy-2-methylpropyl)-7H-pyrrolo[2,3-d]pyrimidin-5-yl)benzylamino)-N-(4-fluorophenyl)-5-(trifluoromethyl)nicotinamide]
22 | – | – | < 100 | 1000 to 10000 | – | C[C@H](NC(=O)c1cc(C#N)cnc1NCc1ccc(-c2cnc(N)c(N)c2)cc1)c1ccc(F)cc1 [Example 102, (S)-5-cyano-2-(4-(5,6-diaminopyridin-3-yl)benzylamino)-N-(1-(4-fluorophenyl)ethyl) nicotinamide]
23 | – | – | < 100 | < 1000 | – | N#Cc1cnc(NCc2ccc(-c3cnc4[nH]c(=O)[nH]c4c3)cc2)c(C(=O)NCc2ccc(F)c(F)c2)c1 [Example 356, 5-cyano-N-(3,4-difluorobenzyl)-2-(4-(2-oxo-2,3-dihydro-1H-imidazo[4,5-b]pyridin-6-yl)benzylamino)nicotinamide]
24 | – | – | < 100 | < 1000 | – | C[C@H](NC(=O)c1nc(C#N)cnc1NCc1ccc(-c2cnc(N)c(CCCN)n2)cc1)c1ccc(F)c(F)c1 [Example 94, 3-{4-[5-Amino-6-(3-amino-propyl)-pyrazin-2-yl]-benzyl-amino}-6-cyano-pyrazine-2-carboxylic acid [(S)-1-(3,4-difluoro-phenyl)-ethyl]-amide]
25 | – | – | < 100 | < 1000 | – | Cn1cc(-c2ccc(CNc3ncc(C(F)(F)F)cc3C(=O)Nc3ccc(F)cc3)cn2)c2c(N)ncnc21 [Example 56, 2-(((6-(4-amino-7-methyl-7H-pyrrolo[2,3-d]pyrimidin-5-yl)pyridin-3-yl)methyl)amino)-N-(4-fluorophenyl)-5-(trifluoromethyl)nicotinamide]
26 | – | – | 100 to 1000 | 1000 to 10000 | – | C[C@H](NC(=O)c1cc(C#N)cnc1NCc1ccc(-c2cnc(NCCO)cn2)cc1)c1ccc(F)cc1 [Example 227, 5-Cyano-N-[(S)-1-(4-fluoro-phenyl)-ethyl]-2-{4-[5-(2-hydroxy-ethylamino)-pyrazin-2-yl]-benzylamino}-nicotinamide]
27 | – | – | 1000 to 5000 | 1000 to 10000 | – | N#Cc1cnc(NCc2ccc(-c3c[nH]c4ncnc(N)c34)cc2)c(-c2ncco2)c1 [Example 43, 6-(4-(4-amino-7H-pyrrolo[2,3-d]pyrimidin-5-yl)benzylamino)-5-(oxazol-2-yl)nicotinonitrile]
28 | – | – | < 100 | 1000 to 10000 | – | Nc1ncnn2ccc(-c3ccc(CNc4ncc(C(F)(F)F)cc4C(=O)NCc4ccc(F)c(F)c4)cc3)c12 [Example 176, 2-[4-(4-Amino-pyrrolo [2,1-f][1,2,4]triazin-5-yl)-benzylamino]-N-(3,4-difluoro-benzyl)-5-trifluoromethyl-nicotinamide]
29 | – | – | > 5000 | > 10000 | – | NC(=O)c1cc(CNc2ncccc2C(=O)NCc2ccc(F)c(F)c2)ccc1-n1ccnc1 [Example 50, 2-(3-carbamoyl-4-(1H-imidazol-1-yl)benzylamino)-N-(3,4-difluorobenzyl)nicotinamide]
